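Where inhibition never reached the appropriate level, the endpoint shown equals the highest concentration tested. Otherwise, values were interpolated linearly from a five-concentration, 48-hour dose response in 96-well plates. The concentration for 50% growth inhibition is given as GI50. Definition used: TGI = concentration required for complete inhibition of growth.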
Columns and labels:
Test in all cases: inhibition of tumour cell growth, NCI panel, 48 h
HOP-92 NSCLC = tested on: HOP-92 NSCLC
KM12 colon = tested on: KM12 colon
UACC-62 melanoma = tested on: UACC-62 melanoma
UO-31 renal = tested on: UO-31 renal
NCI-H460 lung = tested on: NCI-H460 lung
OVCAR-4 ovarian = tested on: OVCAR-4 ovarian
LXFL 529 NSCLC = tested on: LXFL 529 NSCLC
SW-620 colon = tested on: SW-620 colon
CAKI-1 renal = tested on: CAKI-1 renal
HOP-62 NSCLC = tested on: HOP-62 NSCLC

| SMILES | GI50 (HOP-92 NSCLC) [µM] | TGI (HOP-92 NSCLC) [µM] | GI50 (KM12 colon) [µM] | TGI (KM12 colon) [µM] | GI50 (UACC-62 melanoma) [µM] | TGI (UACC-62 melanoma) [µM] | GI50 (UO-31 renal) [µM] | TGI (UO-31 renal) [µM] | GI50 (NCI-H460 lung) [µM] | TGI (NCI-H460 lung) [µM] | GI50 (OVCAR-4 ovarian) [µM] | TGI (OVCAR-4 ovarian) [µM] | GI50 (LXFL 529 NSCLC) [µM] | TGI (LXFL 529 NSCLC) [µM] | GI50 (SW-620 colon) [µM] | TGI (SW-620 colon) [µM] | GI50 (CAKI-1 renal) [µM] | TGI (CAKI-1 renal) [µM] | GI50 (HOP-62 NSCLC) [µM] | TGI (HOP-62 NSCLC) [µM] |
| --- | --- | --- | --- | --- | --- | --- | --- | --- | --- | --- | --- | --- | --- | --- | --- | --- | --- | --- | --- | --- |
| CCOP(=O)(CCP(=O)(OCC)OCC)OCC.C[CH2][Sn]([Cl])([Cl])[CH2]C | 19.7 | 39.2 | > 100 | > 100 | 34 | 55 | > 54.2 | > 66.5 | > 81.8 | > 100 | > 48.7 | > 71.9 | 10.7 | 22.8 | 21.2 | 42.1 | 13.9 | 35 | > 91.3 | > 100 |
| O=[N+]([O-])c1cccc(C2SCc3nc4ccccc4n32)c1 (stereo not drawn) |  | > 100 |  | > 100 |  | > 100 |  | > 100 |  | > 100 |  | > 100 |  | > 100 |  | > 100 |  | > 100 |  | > 100 |
| Cc1c2ccccc2c(C)c2c3c(ccc12)C(=O)C=CC3=O |  | 32.4 |  | > 67.6 |  | > 100 |  | 41.7 |  | > 100 |  | 39.4 |  | 31.5 |  | 47 |  | 46.3 |  | > 90.9 |
| CC(=O)OC1(C#N)CC2OC1C1C2N1C(=O)c1ccccc1 (stereo not drawn) |  | > 100 |  |  |  | > 100 |  | > 100 |  | > 100 |  | > 100 |  | > 100 |  | > 100 |  | > 100 |  | > 100 |
| NC(=O)c1ccccc1NC(=O)C(=O)C(C(=O)c1ccc2ccccc2c1)C1OC(=O)c2ccccc21 (stereo not drawn) |  | 32.3 |  | 49 |  | 22.5 |  | 29.4 |  | > 100 |  | 32.9 |  | 21.9 |  | 27.9 |  | 33 |  | 24.2 |
| Nc1nnc2nc(CC(=O)/C=C/c3ccccc3)c(=O)[nH]n12 |  | > 100 |  | > 100 |  | > 100 |  | > 100 |  | > 100 |  | > 100 |  | > 100 |  | > 100 |  | > 100 |  | > 100 |
| CCc1cccc(C(C)CC)c1N=C(NC(=O)c1ccccc1C(=O)NC(=Nc1c(CC)cccc1C(C)CC)SC)SC (stereo not drawn) |  | 39.2 |  | > 100 |  | 53.5 |  | > 100 |  | > 100 |  | > 100 |  | > 100 |  | > 100 |  | > 100 |  | > 100 |
| COc1cc2cc3c4c(cc(OC)c(OC)c4c2cc1OC)CCN3C(=O)CCCC(=O)O |  | > 100 |  | > 100 |  | > 100 |  | > 100 |  | > 100 |  | > 100 |  | > 100 |  | > 100 |  | > 100 |  | > 100 |
| CCC(=O)C1=C(OC(C)=O)C2Cc3c(n(C)c4ccccc34)C(C1)N2C (stereo not drawn) |  | > 100 |  | > 100 |  | > 100 |  | > 100 |  | > 100 |  | > 100 |  | > 100 |  | 90.1 |  | > 100 |  |  |
| C/C(CN1C(=O)c2ccccc2C1=O)=N\NS(=O)(=O)c1ccccc1 |  | > 100 |  | > 100 |  | > 100 |  | > 100 |  | > 100 |  | > 100 |  | > 100 |  | > 100 |  | > 100 |  | > 100 |
| CCOc1ccccc1NC(=O)C(=O)CC(=O)C1=C(C)Nc2ccccc2S1 |  | > 100 |  | > 100 |  | > 100 |  | > 100 |  | > 100 |  | > 100 |  | > 100 |  | > 100 |  | > 100 |  | > 100 |
